# Measured values reported in the Deep4Chem optical property database.
# Assay: photoluminescence quantum yield (fraction); solvent given as SMILES
structure (smiles),measurement,setting,value
CN1C(=CC=Cc2nc3nc4ccccc4nc3s2)C(C)(C)c2ccccc21,photoluminescence quantum yield,in CCO,0.75
CC[N+](CC)=c1ccc2c(-c3ccccc3C(=O)O)c3oc4cc(N)ccc4c3oc-2c1,photoluminescence quantum yield,in CCO,0.778
same,photoluminescence quantum yield,in ClCCl,0.726
same,photoluminescence quantum yield,in O,0.126
C[Si]1(C)O[Si](C)(C)c2cc3nc4ccccc4c(-c4ccc(F)cc4)c3cc2[Si](C)(C)O1,photoluminescence quantum yield,in ClCCl,0.3
CC(C)(C)NC(=O)c1cccc2ccc3c4ccc(Cl)cc4c4cc(Cl)ccc4c3c12,photoluminescence quantum yield,in ClCCl,0.02
COc1cc2c(cc1OC)C1=C[C@H](c3ccc(C)cc3)C3(C(C#N)=C(C#N)N1CC2)c1cc(Cl)ccc1-c1ccc(Cl)cc13,photoluminescence quantum yield,in ClCCl,0.00053
Cc1cccc(Nc2ccccc2C(=O)O)c1C,photoluminescence quantum yield,in C1CCCCC1,0.0049
same,photoluminescence quantum yield,in C1CCOC1,0.0074
same,photoluminescence quantum yield,in C1COCCO1,0.0035
same,photoluminescence quantum yield,in CC#N,0.0013
same,photoluminescence quantum yield,in CCOC(C)=O,0.0032
same,photoluminescence quantum yield,in CN(C)C=O,0.0013
c1ccc(-c2ccc(-c3ccccc3)cc2)cc1,photoluminescence quantum yield,in C1COCCO1,0.55
CC1(C)c2ccccc2N(c2ccc3c(c2)C2(c4cc(N5c6ccccc6C(C)(C)c6ccccc65)ccc4-3)c3ccccc3S(=O)(=O)c3ccccc32)c2ccccc21,photoluminescence quantum yield,in c1ccc2c(c1)c1ccccc1n2-c1ccc(N(c2ccc(-n3c4ccccc4c4ccccc43)cc2)c2ccc(-n3c4ccccc4c4ccccc43)cc2)cc1,0.41
F[B-]1(F)n2c(cc(-c3ccccc3)c2-c2ccccc2)C(c2ccccc2)=C2C=C(c3ccccc3)C(c3ccccc3)=[N+]21,photoluminescence quantum yield,in C1CCOC1,0.33
same,photoluminescence quantum yield,in CC#N,0.34
same,photoluminescence quantum yield,in Cc1ccccc1,0.64
same,photoluminescence quantum yield,in ClCCl,0.4
COc1ccc(-c2c3cc4cc(C)sc4cc3c(-c3ccc(OC)cc3)c3cc4cc(C)sc4cc23)cc1,photoluminescence quantum yield,in ClCCl,0.61
Cc1cc(C)c(C2=C(c3c(C)sc(-c4ccc(-c5nc(-c6ccccc6)c(-c6ccccc6)[nH]5)cc4)c3C)C(F)(F)C(F)(F)C2(F)F)s1,photoluminescence quantum yield,in C1CCOC1,0.091
O=Cc1ccc(/C=C/c2nc(N3CCOCC3)c3c([n+]2[O-])CCCC3)cc1,photoluminescence quantum yield,in ClCCl,0.025
C(=C\c1cccc2ccccc12)/c1ncc(-c2ccccc2)o1,photoluminescence quantum yield,in ClCCl,0.32
F[B-]1(F)N2C(=Nc3cccc4cccc2c34)c2cccc[n+]21,photoluminescence quantum yield,in CC#N,0.0002
same,photoluminescence quantum yield,in CO,0.007
same,photoluminescence quantum yield,in CS(C)=O,0.0005
same,photoluminescence quantum yield,in Cc1ccccc1,0.006
c1ccc(-c2nc(-c3ccccn3)[se]c2N(c2ccccc2)c2ccccc2)cc1,photoluminescence quantum yield,in ClC(Cl)Cl,0.113
C/C(=C\c1ccc(Cl)cc1)c1nc2ccccc2s1,photoluminescence quantum yield,in C1CCCCC1,0.03
same,photoluminescence quantum yield,in CO,0.005
CCCCCCN(CCCCCC)c1ccc(C#Cc2ccc(C#N)cc2)cc1,photoluminescence quantum yield,in CC#N,0.005
same,photoluminescence quantum yield,in CO,0.015
same,photoluminescence quantum yield,in ClCCl,0.37
CC(C)(C)c1ccc2cc3c4cccc5cccc(c6cc(C(C)(C)C)cc(c2c1)c63)c54,photoluminescence quantum yield,in CC1CCCCC1,0.74
c1cc2c3c(c1)-c1cccc4cccc(c14)B3c1cccc3cccc-2c13,photoluminescence quantum yield,in Cc1ccccc1,0.9
CCCCCCc1ccc(-n2c3[n+](c4c5ccccc5c5ccccc5c42)[B-](C)(C)c2ccc4ccccc4c2-3)cc1,photoluminescence quantum yield,in C1CCOC1,0.11
same,photoluminescence quantum yield,in CC#N,0.07
same,photoluminescence quantum yield,in Cc1ccccc1,0.16
same,photoluminescence quantum yield,in ClCCl,0.08
CCOC(=O)c1ccc2c(c1)sc1c3ccc(C(=O)OCC)cc3n(C)c21,photoluminescence quantum yield,in CCCO,0.65
F[B-]1(F)n2cccc2C(c2ccc(-c3c4ccccc4c(-c4ccccc4)c4ccccc34)cc2)=C2C=CC=[N+]21,photoluminescence quantum yield,in CC#N,0.001
same,photoluminescence quantum yield,in CCCCCC,0.014
same,photoluminescence quantum yield,in CCO,0.003
same,photoluminescence quantum yield,in CN(C)C=O,0.002
same,photoluminescence quantum yield,in Cc1ccccc1,0.036
same,photoluminescence quantum yield,in ClCCl,0.002
NS(=O)(=O)c1ccc(N2N=C(c3ccc(O)cc3)CC2c2ccccc2)cc1 (configuration not stated),photoluminescence quantum yield,in C1CCOC1,0.65
same,photoluminescence quantum yield,in C1COCCO1,0.63
same,photoluminescence quantum yield,in CC#N,0.6
same,photoluminescence quantum yield,in CC(C)O,0.44
same,photoluminescence quantum yield,in CCO,0.36
same,photoluminescence quantum yield,in CCOC(C)=O,0.66
same,photoluminescence quantum yield,in CN(C)C=O,0.68
same,photoluminescence quantum yield,in CO,0.28
same,photoluminescence quantum yield,in CS(C)=O,0.7
same,photoluminescence quantum yield,in O,0.41
COc1ccc(C#Cc2c3cc4ccccc4cc3c(C#Cc3ccc(OC)cc3)c3cc4ccccc4cc23)cc1,photoluminescence quantum yield,in ClCCl,0.03
CCCCCCCC(=O)Oc1ccc2c3cccc4c(OC(=O)CCCCCCC)ccc(c5cccc1c52)c43,photoluminescence quantum yield,in C1CCOC1,0.97
same,photoluminescence quantum yield,in Cc1ccccc1,0.97
same,photoluminescence quantum yield,in ClC(Cl)(Cl)Cl,0.06
same,photoluminescence quantum yield,in ClC(Cl)Cl,0.91
same,photoluminescence quantum yield,in ClCCl,0.8
same,photoluminescence quantum yield,in c1ccncc1,0.93
COC(=O)c1ccc(/C=C2\N=C(c3ccc(OC)c(OC)c3)NC2=O)cc1,photoluminescence quantum yield,in C1COCCO1,0.295
O=P1(c2ccccc2)C(c2ccccc2)=Cc2ccccc21 (configuration not stated),photoluminescence quantum yield,in C1CCOC1,0.3
same,photoluminescence quantum yield,in ClCCl,0.85
Cc1ccccc1-c1c2cccc3c(-c4ccc(C(C)(C)C)cc4)cc4c(-c5ccccc5C)c5cccc6c(-c7ccc(C(C)(C)C)cc7)cc1c(c65)c4c32,photoluminescence quantum yield,in ClCCl,0.28
Cc1cccn2c1cc1c3ccccc3nc(-c3ccco3)c12,photoluminescence quantum yield,in CS(C)=O,0.42
Cc1ccccc1C1=C2C=CC(=[N+](C)C)C=C2[Si](C)(C)c2cc(N(C)C)ccc21,photoluminescence quantum yield,in O,0.31
[NH3+]C(Cc1ccccc1)C(=O)[O-] (configuration not stated),photoluminescence quantum yield,in O,0.022
CC/[NH+]=c1\cc2oc3cc(NCCC(=O)NC(CCC(=O)OC)C(=O)OC)c4ccccc4c3nc-2cc1C (configuration not stated),photoluminescence quantum yield,in CCO,0.48
same,photoluminescence quantum yield,in O,0.16
Cc1ccc2ccc3c(C)ccc4ccc1c2c43,photoluminescence quantum yield,in CCCCCC,0.52
same,photoluminescence quantum yield,in CO,0.56
same,photoluminescence quantum yield,in ClCCl,0.4
CN(CCO)c1ccc(/N=N/c2ccc([N+](=O)[O-])cc2)cc1,photoluminescence quantum yield,in CO,0.0028
same,photoluminescence quantum yield,in OCC(O)CO,0.0011
same,photoluminescence quantum yield,in OCCO,0.0014
same,photoluminescence quantum yield,in Oc1ccccc1,4.3e-05
Cc1cc(=O)oc2c3c4c(cc12)CCCN4CCC3,photoluminescence quantum yield,in CCC#N,0.9
same,photoluminescence quantum yield,in CCCCl,0.8
same,photoluminescence quantum yield,in CCO,0.8
same,photoluminescence quantum yield,in OC(C(F)(F)F)C(F)(F)F,0.86
same,photoluminescence quantum yield,in OCC(F)(F)F,0.84
c1ccc(-c2cc3c(oc4ccccc43)c(-c3ccccc3)[o+]2)cc1,photoluminescence quantum yield,in CC#N,0.18
same,photoluminescence quantum yield,in ClCCCl,0.1
COc1ccc(-c2ccc(-c3cc(-c4ccccn4)nc(-c4ccccn4)c3)cc2)cc1,photoluminescence quantum yield,in ClCCl,0.5
N#Cc1c(-n2c3ccc(Br)cc3c3cc(Br)ccc32)c(C#N)c(-n2c3ccc(Br)cc3c3cc(Br)ccc32)c(-n2c3ccc(Br)cc3c3cc(Br)ccc32)c1-n1c2ccc(Br)cc2c2cc(Br)ccc21,photoluminescence quantum yield,in Cc1ccccc1,0.67
Cc1cc2nc3c(=O)[nH]c(=O)nc-3n(C)c2cc1C,photoluminescence quantum yield,in CC#N,0.16
Cc1cc2c3ccccc3sc2c2[nH]c3ccccc3c12,photoluminescence quantum yield,in ClCCl,0.058
COCCOCCOCCOCC(COCCOCCOCCOC)Oc1cc(/C=C/c2ccc(/C=C(\C#N)c3ccccn3)cc2)c(OC(COCCOCCOCCOC)COCCOCCOCCOC)cc1/C=C/c1ccc(/C=C(\C#N)c2ccccn2)cc1,photoluminescence quantum yield,in ClCCl,0.64
N#Cc1cccc(C#N)c1-c1ccc(N2c3ccccc3C3(c4ccccc42)c2ccccc2N(c2ccc(-c4c(C#N)cccc4C#N)cc2)c2ccccc23)cc1,photoluminescence quantum yield,in O=P(c1ccccc1)(c1ccccc1)c1ccccc1Oc1ccccc1P(=O)(c1ccccc1)c1ccccc1,0.65
Nc1ccc(C#Cc2ccc3ccc4ccc(C#Cc5ccc(N)cc5)c5ccc2c3c45)cc1,photoluminescence quantum yield,in CCCCCC,0.466
same,photoluminescence quantum yield,in CO,0.199
same,photoluminescence quantum yield,in ClCCl,0.646
CCCCCCCCOc1ccc(-c2c3c4n(c(-c5ccc(OCCCCCCCC)cc5)c3c3n2[B-](F)(F)[n+]2c(ccc5ccccc52)N=3)[B-](F)(F)[n+]2c(ccc3ccccc32)N=4)cc1,photoluminescence quantum yield,in ClC(Cl)Cl,0.83
COc1cc(OC)cc(C2=C3C(C)=C(I)C(C)=[N+]3[B-](F)(F)n3c(/C=C/c4ccsc4)c(I)c(C)c32)c1,photoluminescence quantum yield,in C1CCOC1,0.3
same,photoluminescence quantum yield,in CS(C)=O,0.15
same,photoluminescence quantum yield,in ClCCl,0.4
N#Cc1ccc(-c2cn3cc(-c4ccccc4)c[n+]3[n-]2)cc1,photoluminescence quantum yield,in ClCCl,0.48
Cc1ccc(C)c2nc3c(=O)[nH]c(=O)[nH]c3nc12,photoluminescence quantum yield,in CC#N,0.08
c1ccc(-c2ccc(-c3cc(-c4ccc(-c5ccccc5)cc4)cc(-c4ccc(-c5ccccc5)cc4)c3)cc2)cc1,photoluminescence quantum yield,in C1COCCO1,0.27
CC1=C(/C=C/c2ccccc2)C(C)=[N+]2C1=C(c1ccccc1)c1c(C)c(/C=C/c3ccccc3)c(C)n1[B-]2(F)F,photoluminescence quantum yield,in ClC(Cl)Cl,0.01
CCN(CC)c1ccc(/C=C/c2ccc(-c3ccc(/C=C/c4ccc(N(CC)CC)cc4)s3)s2)cc1,photoluminescence quantum yield,in C1CCOC1,0.14
same,photoluminescence quantum yield,in CC#N,0.13
same,photoluminescence quantum yield,in CC(C)=O,0.13
same,photoluminescence quantum yield,in CN(C)C=O,0.12
same,photoluminescence quantum yield,in Cc1ccccc1,0.14
CCC(CC)COC1=CC2=C3c4cc(OCC(CC)CC)c(-c5cccs5)n4[B-](F)(F)[n+]4nnn(c43)[B-](F)(F)[N+]2=C1c1cccs1,photoluminescence quantum yield,in C1CCOC1,0.06
same,photoluminescence quantum yield,in ClCCl,0.06
CCCSc1ccc2n1[B-](F)(F)[N+]1=C(SC#N)C=CC1=C2c1ccccc1,photoluminescence quantum yield,in CC#N,0.16
same,photoluminescence quantum yield,in CCCCCC,0.18
same,photoluminescence quantum yield,in CCOC(C)=O,0.2
same,photoluminescence quantum yield,in CO,0.16
same,photoluminescence quantum yield,in ClCCl,0.27
CC(C)c1ccc2ccc3c(C(C)C)ccc4ccc1c2c43,photoluminescence quantum yield,in CCCCCC,0.45
same,photoluminescence quantum yield,in CO,0.55
same,photoluminescence quantum yield,in ClCCl,0.39
COC1=[N+]2C(=C(c3ccccc3)c3ccc(OC)n3[B-]2(F)F)C=C1,photoluminescence quantum yield,in CC#N,0.11
same,photoluminescence quantum yield,in CCCCCC,0.12
same,photoluminescence quantum yield,in CCOC(C)=O,0.11
same,photoluminescence quantum yield,in CO,0.14
same,photoluminescence quantum yield,in ClCCl,0.2
Cc1ccc(C2=C3C=C(I)C=[N+]3[B-](F)(F)n3cc(I)cc32)cc1,photoluminescence quantum yield,in C1CCCCC1,0.012
same,photoluminescence quantum yield,in CC#N,0.005
same,photoluminescence quantum yield,in CCO,0.006
same,photoluminescence quantum yield,in CCOC(C)=O,0.007
same,photoluminescence quantum yield,in CO,0.005
same,photoluminescence quantum yield,in OCC(F)(F)F,0.006
CC1=C2C=CC=[N+]2[B-](F)(F)n2cccc21,photoluminescence quantum yield,in CCCCCC,0.96
same,photoluminescence quantum yield,in CO,1
same,photoluminescence quantum yield,in ClCCl,0.88
